Experimental data from the supplement of paper PMC10307832.

Tests used:
Assay in all cases: relative viability (nuclei count vs DMSO), 5 days (fraction); higher = more cells survive
[1] = compound: C1CC(C1)(C(=O)O)C(=O)O.[NH2-].[NH2-].[Pt+2] [Carboplatin] + CC(=O)c1c(C)c2cnc(Nc3ccc(N4CCNCC4)cn3)nc2n(C2CCCC2)c1=O [Palbociclib] (partner 0.5 µM)
Outline: (§1)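 Lung cancer cell lines were pin-tool dosed in 1536-well plates on the day after seeding, with either a lone drug or a fixed anchor-drug dose plus five library-drug doses (not always all listed) in √10 steps. Nuclei were counted on 4× images after 5 days. Relative viability is the ratio of treated-well to vehicle-well nuclei counts, with each value a median of duplicate plates.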

[2] = compound: CC[C@H](C)N1C=C(C2=C(C=C(C=C21)C3=CN=C(C=C3)N4CCNCC4)C(=O)NCC5=C(C=C(NC5=O)C)C)C [GSK126] + N=C(N)NC(=N)NCCc1ccccc1 [Phenformin] (partner 250 µM)
Outline: as §1

[3] = compound: CC[C@H](C)N1C=C(C2=C(C=C(C=C21)C3=CN=C(C=C3)N4CCNCC4)C(=O)NCC5=C(C=C(NC5=O)C)C)C [GSK126] + O=C(c1cc(Cc2n[nH]c(=O)c3ccccc23)ccc1F)N1CCN(C(=O)C2CC2)CC1 [Olaparib] (partner 8 µM)
Outline: as §1

[4] = compound: NS(=O)(=O)OC[C@@H]1C[C@@H](n2ccc3c(N[C@H]4CCc5ccccc54)ncnc32)C[C@@H]1O [MLN4924] + N=C(N)NC(=N)NCCc1ccccc1 [Phenformin] (partner 250 µM)
Outline: as §1

| Cell Line | relative viability ([1]; first compound 0.08 µM) | relative viability ([1]; first compound 0.253 µM) | relative viability ([1]; first compound 0.8 µM) | relative viability ([1]; first compound 2.53 µM) | relative viability ([1]; first compound 8 µM) | relative viability ([2]; first compound 0.08 µM) | relative viability ([2]; first compound 0.253 µM) | relative viability ([2]; first compound 0.8 µM) | relative viability ([2]; first compound 2.53 µM) | relative viability ([2]; first compound 8 µM) | relative viability ([3]; first compound 0.08 µM) | relative viability ([3]; first compound 0.253 µM) | relative viability ([3]; first compound 0.8 µM) | relative viability ([3]; first compound 2.53 µM) | relative viability ([3]; first compound 8 µM) | relative viability ([4]; first compound 0.04 µM) | relative viability ([4]; first compound 0.1265 µM) | relative viability ([4]; first compound 0.4 µM) | relative viability ([4]; first compound 1.265 µM) | relative viability ([4]; first compound 4 µM) |
| --- | --- | --- | --- | --- | --- | --- | --- | --- | --- | --- | --- | --- | --- | --- | --- | --- | --- | --- | --- | --- |
| NCI-H2126 | 0.333 | 0.354 | 0.336 | 0.363 | 0.353 | 0.512 | 0.534 | 0.554 | 0.535 | 0.507 | 0.963 | 0.957 | 0.884 | 0.916 | 0.915 | 0.566 | 0.566 | 0.432 | 0.321 | 0.304 |
| SW 900 | 0.548 | 0.622 | 0.572 | 0.393 | 0.505 | 0.637 | 0.479 | 0.721 | 0.502 | 0.576 | 0.909 | 0.751 | 0.866 | 0.885 | 0.888 | 0.205 | 0.483 | 0.258 | 0.15 | 0.128 |
| LXF-289 | 0.629 | 0.59 | 0.635 | 0.563 | 0.583 | 0.549 | 0.509 | 0.477 | 0.487 | 0.483 | 1.12 | 1.11 | 1.05 | 1.01 | 1.02 | 0.491 | 0.41 | 0.293 | 0.163 | 0.121 |
| BEN | 0.467 | 0.442 | 0.488 | 0.44 | 0.494 | 0.268 | 0.243 | 0.234 | 0.232 | 0.217 | 1.23 | 1.01 | 1.16 | 1.13 | 1.12 | 0.214 | 0.185 | 0.218 | 0.183 | 0.145 |
| NCI-H1993 | 0.596 | 0.781 | 0.634 | 0.627 | 0.534 | 0.501 | 0.546 | 0.501 | 0.522 | 0.554 | 1.21 | 1.02 | 1 | 1.06 | 0.893 | 0.535 | 0.579 | 0.528 | 0.468 | 0.487 |
| NCI-H522 | 0.897 | 1.35 | 1 | 0.965 | 0.825 | 0.62 | 0.671 | 0.662 | 0.743 | 0.601 | 0.61 | 0.599 | 0.639 | 0.611 | 0.699 | 0.642 | 0.676 | 0.454 | 0.424 | 0.293 |
| SW 1573 | 0.484 | 0.438 | 0.43 | 0.369 | 0.273 | 0.41 | 0.4 | 0.376 | 0.439 | 0.423 | 0.609 | 0.542 | 0.582 | 0.621 | 0.49 | 0.325 | 0.297 | 0.144 | 0.086 | 0.0734 |
| NCI-H520 | 0.26 | 0.2 | 0.201 | 0.223 | 0.228 | 0.572 | 0.542 | 0.561 | 0.574 | 0.497 | 0.401 | 0.347 | 0.311 | 0.462 | 0.37 | 0.566 | 0.439 | 0.429 | 0.265 | 0.238 |
| LCLC-97TM1 | 0.206 | 0.211 | 0.257 | 0.211 | 0.206 | 0.359 | 0.459 | 0.455 | 0.389 | 0.374 | 0.494 | 0.596 | 0.413 | 0.507 | 0.445 | 0.417 | 0.314 | 0.288 | 0.108 | 0.137 |
| HCC-827 | 0.479 | 0.38 | 0.499 | 0.44 | 0.469 | 0.408 | 0.385 | 0.441 | 0.388 | 0.411 | 0.725 | 0.642 | 0.617 | 0.726 | 0.601 | 0.453 | 0.462 | 0.316 | 0.144 | 0.136 |
| NCI-H1975 | 0.572 | 0.625 | 0.56 | 0.601 | 0.518 | 0.465 | 0.412 | 0.392 | 0.422 | 0.405 | 0.785 | 0.789 | 0.721 | 0.809 | 0.762 | 0.418 | 0.479 | 0.494 | 0.328 | 0.184 |
